Data from US12240859B2, “Turbinmicin compounds, compositions and uses thereof” (Wisconsin Alumni Research Foundation, priority 2019, dated 2025).
In brackets after ≈: the same amount, converted by molar mass. Like-named read-outs stand apart in the source and are kept apart here.

Columns and labels:
[1] = system: C. albicans; assay: In vitro MIC susceptibility testing, broth microdilution; type: cell-based, Candida albicans; settings: Candida albicans
Experimental: (§1) In vitro MIC susceptibility testing. […]. Amphotericin B was used as a positive control and the MICs range were 0.25-1.5 μg/mL. Six untreated media controls were included on each plate. The plates were incubated at 33° C. for 72 h. The MICs were determined as the lowest concentration that inhibited visible growth. The MICs were read at 24, 48, and 72 hours, respectively. […]

[2] = system: C. auris; assay: as above; type: cell-based, Candida auris; settings: Candidozyma auris
Experimental: as §1

[3] = system: Apophysomyces elegans; assay: In vitro MIC susceptibility testing; type: cell-based
Experimental: as §1

[4] = system: Aspergillus fumigatus; assay: In vitro MIC susceptibility testing; type: cell-based
Experimental: as §1

[5] = system: Cynninghamella bertholletiae; assay: In vitro MIC susceptibility testing; type: cell-based
Experimental: as §1

[6] = system: Lichteimia corymbiferea; assay: In vitro MIC susceptibility testing; type: cell-based
Experimental: as §1

[7] = system: Mucor circinelloides; assay: In vitro MIC susceptibility testing; type: cell-based
Experimental: as §1

[8] = system: Rhizopus delemar; assay: In vitro MIC susceptibility testing; type: cell-based
Experimental: as §1

[9] = system: Rhizopus oryzae; assay: In vitro MIC susceptibility testing; type: cell-based; settings: Rhizopus arrhizus
Experimental: as §1

[10] = system: Scedosporium spp.; assay: In vitro MIC susceptibility testing; type: cell-based
Experimental: as §1

[11] = system: A. fumigatus; assay: Time kill experiments; type: cell-based, Aspergillus fumigatus; settings: A. fumigatus as printed in b90 (FIG. 6C), 0-48 h
[12] = system: C. auris B11211; assay: Neutropenic murine disseminated candidiasis model, C. auris B11211; type: in vivo, Candida auris; settings: mice
Description: (§2) Animals. Six-week-old ICR Swiss specific-pathogen-free female mice weighing 23 to 27 g were used for all studies. Animals were maintained in accordance with the American Association for Accreditation of Laboratory Care criteria. Animal studies were approved by the University of Wisconsin Animal Research Committee.
C. auris B11211 and C. albicans K1 Infection model. A neutropenic, murine, disseminated candidiasis model was used for the treatment studies. […]
C auris B11211 was subcultured on SDA 24 h prior to infection. […] Fungal counts of the inoculum determined by viable counts of C. auris on SDA were 6.25±0.03 log10 CFU ml^−1, respectively. […] Results were expressed as the mean number of CFU per kidney for three mice. […]
(§3) Disseminated infection with C. auris B11211 infection was produced by injection of 0.1 ml of the inoculum via the lateral tail vein 2 h prior to the start of antifungal therapy. […] The results are expressed as the mean and standard deviation of the log10 CFU/kidney from three mice. […]
(§4) Results. A multi-dose experiment with C. auris B11211 infection murine model was evaluated, and four doses (1, 2, 4, and 8 mg/kg) of turbinmicin were administered to mice every six hours over a 24 h period; turbinmicin was administered by intraperitoneal route.

[13] = system: C. albicans K1; assay: Neutropenic murine disseminated candidiasis model, C. albicans K1; type: in vivo, Candida albicans; settings: mice
Description: as §2
C. auris B11211 and C. albicans K1 Infection model. A neutropenic, murine, disseminated candidiasis model was used for the treatment studies. Mice were rendered neutropenic (neutrophils, <100/mm^3) by injecting them with cyclophosphamide (Mead Johnson Pharmaceuticals, Evansville, IN) subcutaneously 4 days (150 mg/kg) and 1 day (100 mg/kg) before infection, and 2 days after infection (100 mg/kg). Previous studies have shown neutropenia (<100 mm^3) in this model for the 96-h study period.
as §3, §4

[14] = system: A. fumigatus F11628; assay: Neutropenic murine nasal aspiration pneumonia model of invasive pulmonary aspergillosis; type: in vivo, Aspergillus fumigatus

C/C=C/C=C/C=C/C(=O)OC1C=CCC2C(=O)c3c(O)c4c5c(c3OC12)OCOC5CC1C(=O)c2cc(C)[nH]c(=O)c2C(=O)C41O (stereo not shown) [Turbinmicin, turbinmicin]
MIC ([1]; strain 98-17): 0.25 µg/mL (≈ 0.398 µM)
MIC ([1]; strain 98-210): 0.25 µg/mL (≈ 0.398 µM)
MIC ([1]; strain 580): 0.5 µg/mL (≈ 0.797 µM)
MIC ([1]; strain K1 (K-1)): 0.25 µg/mL (≈ 0.398 µM)
MIC ([1]; strain SN250): 0.25 µg/mL (≈ 0.398 µM)
MIC ([2]; strain B11104): 0.5 µg/mL (≈ 0.797 µM)
MIC ([2]; strain B11203): 0.5 µg/mL (≈ 0.797 µM)
MIC ([2]; strain B11211, resistant to amphotericin B, fluconazole, micafungin, read-out: MIC): 0.25 µg/mL (≈ 0.398 µM)
MIC ([2]; strain B11219): 0.25 µg/mL (≈ 0.398 µM)
MIC ([2]; strain B11220): 0.125 µg/mL (≈ 0.199 µM)
MIC ([2]; strain B11221): 0.5 µg/mL (≈ 0.797 µM)
MIC ([2]; strain B11785): 0.25 µg/mL (≈ 0.398 µM)
MIC ([2]; strain B11799): 0.5 µg/mL (≈ 0.797 µM)
MIC ([2]; strain B11801): 0.5 µg/mL (≈ 0.797 µM)
MIC ([2]; strain B11804): 0.5 µg/mL (≈ 0.797 µM)
MIC [3]: 4 µg/mL (≈ 6.37 µM)
MIC ([4]; strain 293, read-out: MIC): 0.125 µg/mL (≈ 0.199 µM)
MIC ([4]; strain F11628 (11628), Cyp51 G138C, triazole resistant): 0.03 µg/mL (≈ 0.0478 µM)
MIC ([4]; strain F14403, Cyp51 G54R): 0.25 µg/mL (≈ 0.398 µM)
MIC ([4]; strain F14532, Cyp51 M220T): 0.25 µg/mL (≈ 0.398 µM)
MIC ([4]; strain F16216, Cyp51 L98H + TR): 0.25 µg/mL
MIC [5]: > 8 µg/mL
MIC [6]: 4 µg/mL (≈ 6.37 µM)
MIC [7]: 4 µg/mL (≈ 6.37 µM)
MIC [8]: 4 µg/mL (≈ 6.37 µM)
MIC [9]: > 8 µg/mL
MIC [10]: 0.5 µg/mL (≈ 0.797 µM)
time-kill activity [11]: Fungacidal activity was observed
CFU/kidney reduction ([12]; multi-dose 1, 2, 4 and 8 mg/kg intraperitoneal every six hours over 24 h, at 24 h, dose-dependent): > 3 log 10 CFU/kidney
antifungal effect, single dose ([12]; single intraperitoneal dose 8, 16, 32, 64 mg/kg, 6 h, data not shown): failed to reveal a significant antifungal effect
CFU/kidney reduction ([13]; multi-dose 1, 2, 4 and 8 mg/kg intraperitoneal over 24 hours): > 1 log 10 CFU/kidney
in vivo efficacy, single dose ([13]; single intraperitoneal dose 16, 32, 48 and 64 mg/kg, 6 h): showed in vivo efficacy
survival ([14]; mice, 0.25, 0.5 and 1 mg/kg IP every 6 hrs for 4 days, all three dosages): 100%
CE/mL reduction of lung homogenate measured by qPCR ([14]; mice, dose of 1 mg/kg IP every 6 hrs for 4 days): 1 log 10 CE/mL
